According to ChEMBL document CHEMBL1140860, “Synthesis and evaluation of dihydroartemisinin and dihydroartemisitene acetal dimers showing anticancer and antiprotozoal activity” (Bioorg Med Chem, 2009):

How the values were obtained:
[1] = system: OVCAR-8; experiment: Growth inhibition of human OVCAR8 cells after 48 hrs by sulforhodamine B assay; format: functional; details: OVCAR-8, 48 h
[2] = system: CCRF-CEM; experiment: Growth inhibition of human CCRF-CEM cells after 48 hrs by sulforhodamine B assay; format: functional
[3] = system: MCF7; experiment: Growth inhibition of human MCF7 cells after 48 hrs by sulforhodamine B assay; format: functional; details: MCF7, 48 h
[4] = system: NCI-H522; experiment: Growth inhibition of human NCI-H522 cells after 48 hrs by sulforhodamine B assay; format: functional; details: NCI-H522, 48 h
[5] = system: SK-MEL-5; experiment: Growth inhibition of human SK-MEL-5 cells after 48 hrs by sulforhodamine B assay; format: functional; details: SK-MEL-5, 48 h
[6] = system: NCI-H322M; experiment: Growth inhibition of human NCI-H322M cells after 48 hrs by sulforhodamine B assay; format: functional
[7] = system: HCC 2998; experiment: Growth inhibition of human HCC2998 cells after 48 hrs by sulforhodamine B assay; format: functional; details: HCC 2998, 48 h
[8] = system: HT-29; experiment: Growth inhibition of human HT-29 cells after 48 hrs by sulforhodamine B assay; format: functional; details: HT-29, 48 h
[9] = Growth inhibition of human Hs 578T cells after 48 hrs by sulforhodamine B assay; format: functional
[10] = system: UACC-257; experiment: Growth inhibition of human UACC257 cells after 48 hrs by sulforhodamine B assay; format: functional; details: UACC-257, 48 h
[11] = system: DU-145; experiment: Growth inhibition of human DU145 cells after 48 hrs by sulforhodamine B assay; format: functional; details: DU-145, 48 h
[12] = system: NCI-H226; experiment: Growth inhibition of human NCI-H226 cells after 48 hrs by sulforhodamine B assay; format: functional; details: NCI-H226, 48 h
[13] = system: MDA-N; experiment: Growth inhibition of human MDA-N cells after 48 hrs by sulforhodamine B assay; format: functional
[14] = system: NCI-H23; experiment: Growth inhibition of human NCI-H23 cells after 48 hrs by sulforhodamine B assay; format: functional; details: NCI-H23, 48 h
[15] = system: MDA-MB-231; experiment: Growth inhibition of human MDA-MB-231 cells after 48 hrs by sulforhodamine B assay; format: functional; details: MDA-MB-231, 48 h
[16] = system: M14; experiment: Growth inhibition of human M14 cells after 48 hrs by sulforhodamine B assay; format: functional; details: M14, 48 h
[17] = system: EKVX; experiment: Growth inhibition of human EKVX cells after 48 hrs by sulforhodamine B assay; format: functional
[18] = system: SN12C; experiment: Growth inhibition of human SN12C cells after 48 hrs by sulforhodamine B assay; format: functional
[19] = system: OVCAR-3; experiment: Growth inhibition of human OVCAR-3 cells after 48 hrs by sulforhodamine B assay; format: functional; details: OVCAR-3, 48 h
[20] = system: HCT-116; experiment: Growth inhibition of human HCT116 cells after 48 hrs by sulforhodamine B assay; format: functional; details: HCT-116, 48 h
[21] = system: SNB-19; experiment: Growth inhibition of human SNB19 cells after 48 hrs by sulforhodamine B assay; format: functional; details: SNB-19, 48 h
[22] = Growth inhibition of human […] cells after 48 hrs by sulforhodamine B assay; format: functional
[23] = system: HL-60; experiment: Growth inhibition of human HL-60(TB) cells after 48 hrs by sulforhodamine B assay; format: functional; details: HL-60, 48 h
[24] = system: HCT-15; experiment: Growth inhibition of human HCT15 cells after 48 hrs by sulforhodamine B assay; format: functional; details: HCT-15, 48 h
[25] = system: SF-268; experiment: Growth inhibition of human SF268 cells after 48 hrs by sulforhodamine B assay; format: functional; details: SF-268, 48 h
[26] = system: IGROV-1; experiment: Growth inhibition of human IGROV1 cells after 48 hrs by sulforhodamine B assay; format: functional; details: IGROV-1, 48 h
[27] = system: RXF 393; experiment: Growth inhibition of human RXF393 cells after 48 hrs by sulforhodamine B assay; format: functional; details: RXF 393, 48 h
[28] = system: SK-MEL-2; experiment: Growth inhibition of human SK-MEL-2 cells after 48 hrs by sulforhodamine B assay; format: functional; details: SK-MEL-2, 48 h
[29] = system: CAKI-1; experiment: Growth inhibition of human Caki1 cells after 48 hrs by sulforhodamine B assay; format: functional; details: CAKI-1, 48 h
[30] = system: SK-MEL-28; experiment: Growth inhibition of human SK-MEL-28 cells after 48 hrs by sulforhodamine B assay; format: functional; details: SK-MEL-28, 48 h
[31] = Selectivity index, ratio of TC50 for african green monkey (Cercopithecus aethiops) Vero cells to IC50 for chloroquine-resistant Plasmodium falciparum W2; format: toxicity, cell-based
[32] = system: A549; experiment: Growth inhibition of human A549 cells after 48 hrs by sulforhodamine B assay; format: functional; details: A549, 48 h
[33] = system: LOX IMVI; experiment: Growth inhibition of human LOXIMVI cells after 48 hrs by sulforhodamine B assay; format: functional
[34] = system: SW-620; experiment: Growth inhibition of human SW620 cells after 48 hrs by sulforhodamine B assay; format: functional; details: SW-620, 48 h
[35] = system: SF-295; experiment: Growth inhibition of human SF295 cells after 48 hrs by sulforhodamine B assay; format: functional; details: SF-295, 48 h
[36] = system: SR; experiment: Growth inhibition of human SR cells after 48 hrs by sulforhodamine B assay; format: functional
[37] = system: PC-3; experiment: Growth inhibition of human PC3 cells after 48 hrs by sulforhodamine B assay; format: functional; details: PC-3, 48 h
[38] = system: SK-OV-3; experiment: Growth inhibition of human SKOV3 cells after 48 hrs by sulforhodamine B assay; format: functional; details: SK-OV-3, 48 h
[39] = system: UACC-62; experiment: Growth inhibition of human UACC62 cells after 48 hrs by sulforhodamine B assay; format: functional; details: UACC-62, 48 h
[40] = system: MDA-MB-435; experiment: Growth inhibition of human MDA-MB-435 cells after 48 hrs by sulforhodamine B assay; format: functional; details: MDA-MB-435, 48 h
[41] = system: A498; experiment: Growth inhibition of human A498 cells after 48 hrs by sulforhodamine B assay; format: functional; details: A498, 48 h
[42] = system: OVCAR-5; experiment: Growth inhibition of human OVCAR5 cells after 48 hrs by sulforhodamine B assay; format: functional; details: OVCAR-5, 48 h
[43] = system: HOP-92; experiment: Growth inhibition of human HOP92 cells after 48 hrs by sulforhodamine B assay; format: functional; details: HOP-92, 48 h
[44] = system: Plasmodium falciparum; experiment: Antimalarial activity after 72 hrs against chloroquine-sensitive Plasmodium falciparum D6 infected in erythrocytes by LDH assay; format: functional, organism-based; details: D6, 72 h
[45] = system: KM12; experiment: Growth inhibition of human KM12 cells after 48 hrs by sulforhodamine B assay; format: functional; details: KM12, 48 h
[46] = system: NCI/ADR-RES; experiment: Growth inhibition of human NCI/ADR-RES cells after 48 hrs by sulforhodamine B assay; format: functional
[47] = system: K562; experiment: Growth inhibition of human K562 cells after 48 hrs by sulforhodamine B assay; format: functional; details: K562, 48 h
[48] = system: COLO 205; experiment: Growth inhibition of human COLO205 cells after 48 hrs by sulforhodamine B assay; format: functional; details: COLO 205, 48 h
[49] = system: SF-539; experiment: Growth inhibition of human SF539 cells after 48 hrs by sulforhodamine B assay; format: functional; details: SF-539, 48 h
[50] = system: TK-10; experiment: Growth inhibition of human TK10 cells after 48 hrs by sulforhodamine B assay; format: functional; details: TK-10, 48 h

## C[C@H]1[C@@H](OCC(O)CO[C@@H]2C[C@@H]3CC[C@@H](C)[C@@H]4CC[C@@]5(C)OO[C@@]34[C@H](O2)O5)O[C@@H]2O[C@@]3(C)CC[C@H]4[C@H](C)CC[C@@H]1[C@@]24OO3 (stereo partly drawn)
[1]
  GI50: 252 nM
[2]
  GI50: 104 nM
[3]
  GI50: 95 nM
[4]
  GI50: 521 nM
[5]
  GI50: 95 nM
[6]
  GI50: 62500 nM
[7]
  GI50: 7020 nM
[8]
  GI50: 268 nM
[9]
  GI50: 12500 nM
[10]
  GI50: 257 nM
[11]
  GI50: 13800 nM
[12]
  GI50: 61700 nM
[13]
  GI50: 368 nM
[14]
  GI50: 135 nM
[15]
  GI50: 45800 nM
[16]
  GI50: 14900 nM
[17]
  GI50: 307 nM
[18]
  GI50: 263 nM
[19]
  GI50: 171 nM
[20]
  GI50: 49 nM
[21]
  GI50: 27600 nM
[22]
  GI50: 24 nM
[23]
  GI50: 62 nM
[24]
  GI50: 27 nM
[25]
  GI50: 13700 nM
[26]
  GI50: 13100 nM
[27]
  GI50: 213 nM
[28]
  GI50: 14200 nM
[29]
  GI50: 256 nM
[30]
  GI50: 9390 nM
[31]
  selectivity ratio: > 6430
[32]
  GI50: 505 nM
[33]
  GI50: 110 nM
[34]
  GI50: 99 nM
[35]
  GI50: 9520 nM
[36]
  GI50: 178 nM
[37]
  GI50: 35 nM
[38]
  GI50: 21400 nM
[39]
  GI50: 296 nM
[40]
  GI50: 301 nM
[41]
  GI50: 686 nM
[42]
  GI50: 17700 nM
[43]
  GI50: 384 nM
[44]
  IC50: 300 nM
[45]
  GI50: 166 nM
[46]
  GI50: 340 nM
[47]
  GI50: 60 nM
[48]
  GI50: 40 nM
[49]
  GI50: 8640 nM

## C[C@H]1[C@@H](OCCO[C@H]2O[C@@H]3O[C@@]4(C)CC[C@H]5[C@H](C)CC[C@@H]([C@H]2C)[C@@]35OO4)O[C@@H]2O[C@@]3(C)CC[C@H]4[C@H](C)CC[C@@H]1[C@@]24OO3
[1]
  GI50: 179 nM
[2]
  GI50: 68 nM
[3]
  GI50: 34 nM
[4]
  GI50: 69 nM
[5]
  GI50: 316 nM
[6]
  GI50: > 100000 nM
[7]
  GI50: 6920 nM
[8]
  GI50: 41 nM
[9]
  GI50: 656 nM
[10]
  GI50: 343 nM
[50]
  GI50: 206 nM
[11]
  GI50: 220 nM
[12]
  GI50: 321 nM
[13]
  GI50: 219 nM
[14]
  GI50: 1150 nM
[15]
  GI50: 15000 nM
[16]
  GI50: 183 nM
[17]
  GI50: 146 nM
[18]
  GI50: 540 nM
[20]
  GI50: 26 nM
[21]
  GI50: > 100000 nM
[22]
  GI50: < 10 nM
[23]
  GI50: 29 nM
[24]
  GI50: 19 nM
[25]
  GI50: 460 nM
[26]
  GI50: 65 nM
[27]
  GI50: 10600 nM
[28]
  GI50: 243 nM
[29]
  GI50: 297 nM
[30]
  GI50: 32500 nM
[31]
  selectivity ratio: > 64
[32]
  GI50: 63 nM
[33]
  GI50: 72 nM
[34]
  GI50: 70 nM
[35]
  GI50: 800 nM
[36]
  GI50: 77 nM
[37]
  GI50: 10 nM
[38]
  GI50: 798 nM
[39]
  GI50: 343 nM
[40]
  GI50: 572 nM
[41]
  GI50: 77200 nM
[42]
  GI50: 83 nM
[43]
  GI50: 149 nM
[44]
  IC50: 1700 nM
[45]
  GI50: 81 nM
[46]
  GI50: 243 nM
[47]
  GI50: 14 nM
[48]
  GI50: 490 nM
[49]
  GI50: 300 nM
